Patent US11465998B2, “Therapeutic compounds and methods of use thereof” (Regents of the University of Minnesota, priority 2019, dated 2022)
Entries after “also recorded” stand apart in the source; their conditions may differ.

Columns and labels:
[1] = tested on: microglial cell line derived from MAL/MyD88 double knockout Mice (NR-9904); experiment: Cytokine/chemokine induction in MAL/MyD88 double-knockout cell line; format: cell-based; settings: MAL/MyD88 double-knockout murine cell line
Method: (§1) Cytokine induction by 7e and 7f was examined in murine-derived cell lines. […] The absence of activity was not due to extensive plasma protein binding by re-examining under near-serum-free conditions.
(§2) Example 5: High-throughput screens in porcine blood: Curated compound collections were obtained from the Institute for Therapeutics Discovery & Development at the University of Minnesota. Compound transfers from source (80 nL of 10 mM stocks) to assay plates were performed using an Echo 550 acoustic liquid handler (Labcyte, Sunnyvale, Calif.). For most libraries, a target final concentration of 10 μM of compound (in a final volume of 80 μL for the assay described below) was achieved. Compound plates were hermetically sealed and stored at −80° C. until used. Fresh, heparin-anticoagulated porcine blood from healthy animals were obtained under USDA supervision from Midwest Research Swine, LLC (Glencoe, Minn.). 80 μL of hematocrit-enriched porcine blood (low-speed centrifugation, followed by resuspension in DMEM supplemented with 10% fetal bovine serum) was added to compound plates and incubated for 15 h. […] NF-κB translocation was assayed spectrophotometrically using an alkaline phosphatase-specific chromogen (present in HEK-detection medium as supplied by InvivoGen) at 620 nm using a SpectraMax M4 multimode microplate reader (Molecular Devices, Sunnyvale, Calif.). […] Example 7: Human NOD1/2-specific reporter gene assays (NF-κB induction), and TLR-2/-3/-4/-5/-7/-8/-9/STING/ISG counter-screens: The induction of NF-κB was quantified using human TLR-2/-3/-4/-5/-7/-8/-9/NOD-1/NOD-2/STING/ISG-specific, rapid-throughput, liquid handler-assisted reporter gene assays as previously described by us (Wu, W. et al. J. Med. Chem. 2010, 53, 3198-3213; Shukla, N. M. et al. J. Med. Chem. 2010, 53, 4450-4465; Agnihotri, G. et al. J. Med. Chem. 2011, 54, 1490-1510 and Ukani, R. et al. Bioorg. Med. Chem. Lett. 2012, 22, 293-295). […]

[2] = tested on: THP-1 NF-κB reporter cells; experiment: NF-κB translocation in THP-1 NF-κB reporter cells, alone or with TLR stimuli; format: cell-based, human; settings: for enhancement of NF-κB translocation response to TLR2 stimuli: concurrent exposure to compound and TLR2 agonist; for enhancement of NF-κB translocation response to TLR2 stimuli / enhancement of NF-κB translocation response to TLR4 stimuli / enhancement of NF-κB translocation response to TLR5 stimuli: data not shown; for enhancement of NF-κB translocation response to TLR4 stimuli: concurrent exposure to compound and TLR4 agonist; for enhancement of NF-κB translocation response to TLR5 stimuli: concurrent exposure to compound and TLR5 agonist; for enhancement of NF-κB translocation response to TLR7 stimuli: concurrent exposure to graded concentrations of compound and TLR7 agonist; for enhancement of NF-κB translocation response to TLR8 stimuli: concurrent exposure to graded concentrations of compound and TLR8 agonist
Description: Given that Rip2 activity is proximal to several of the components that constitute the multiprotein signaling complexes involved in innate immune signaling, and Rip2 participates in signaling through some, but not all, TLRs, it was of particular interest to examine if the benzimidazole-thiophene-2-carboxamide formula I compounds could synergize with other innate immune stimuli. […] THP-1 NF-κB reporter cells were concurrently exposed to graded concentrations of either 7e or 7f, and a variety of innate immune stimuli, including TLR-2, -3, -4, -5, -7, -8, and -9 agonists. An enhancement in NF-κB translocation was observed.

[3] = tested on: RAW264.7 murine macrophages; experiment: Cytokine/chemokine induction in wild-type RAW264.7 murine macrophages (multiplexed immunoassay); format: cell-based; settings: wild-type RAW264.7 murine macrophage cell line
Method: as §1, §2

CCCCCCc1nc2ccccc2n1-c1csc(C(N)=O)c1 [Compound 7f, 4-(2-Hexyl-1H-benzo[d]imidazol-1-yl)thiophene-2-carboxamide] was tested, and the “cytokine and chemokine induction” value [1] was “essentially identical to that of 7e”, the “enhancement of NF-κB translocation response to TLR2 stimuli” value [2] was “absent” and the “enhancement of NF-κB translocation response to TLR4 stimuli” value [2] was “absent”. For the same molecule, the “enhancement of NF-κB translocation response to TLR5 stimuli” value [2] was “evident”, the “enhancement of NF-κB translocation response to TLR7 stimuli” value [2] was “particularly pronounced” and the “enhancement of NF-κB translocation response to TLR8 stimuli” value [2] was “particularly pronounced”. For the same molecule, the “induction of chemokines and proinflammatory cytokines” value [3] was “potently immunostimulatory; also recorded: essentially identical to that of 7e”.
With CCCCCc1nc2ccccc2n1-c1csc(C(N)=O)c1 [Compound 7e, 4-(2-Pentyl-1H-benzo[d]imidazol-1-yl)thiophene-2-carboxamide] the “cytokine and chemokine induction” value [1] was “abrogation of responsiveness”, the “enhancement of NF-κB translocation response to TLR2 stimuli” value [2] was “absent” and the “enhancement of NF-κB translocation response to TLR4 stimuli” value [2] was “absent”. For the same molecule, the “enhancement of NF-κB translocation response to TLR5 stimuli” value [2] was “evident”, the “enhancement of NF-κB translocation response to TLR7 stimuli” value [2] was “particularly pronounced; also recorded: enhancement of NF-κB translocation responses” and the “enhancement of NF-κB translocation response to TLR8 stimuli” value [2] was “particularly pronounced; also recorded: enhancement of NF-κB translocation responses; also recorded: distinctly biphasic”. The “induction of chemokines and proinflammatory cytokines” value [3] was “potently immunostimulatory; also recorded: induction of chemokines and cytokines”.
